Drawing on patent US12441733B2, “Substituted 2,4-dioxotetrahydropyrimidines as intermediates in the synthesis of bruton's tyrosine kinase inhibitors” (Novartis AG, priority 2018, dated 2025), this text covers GI50 for 17 compounds.

For this experiment, the system named is TMD8 cells. In words: Resazurin cell viability (proliferation) assay in TMD8 DLBCL cells. Particulars: Homo sapiens, TMD8 cells (BTK dependent), 72 h, 50% growth inhibition vs vehicle, read-out: TMD8 Prol GI50. Type of experiment: cell-based. Put shortly: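 TMD8 cells were seeded at 1×10^4 per well and treated 3 h later with compound, in an 8-point 1:4 dilution series starting at 1 μM, or DMSO, for 72 h at 37° C. Resazurin was added at 13 μg/ml final for the last 2 h, and fluorescence was read at ex 530/em 600 nm. GI50 versus vehicle was derived by curve fitting from triplicates.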
For orientation: Alamar Blue is a resazurin reagent that responds to reducing activity.
Take `COc1ccc(C(=O)N2CCC3(CCN(Cc4ccc(-c5cc6c(-c7cc(F)cc(NC(=O)c8ccc(C(C)(C)O)cc8F)c7C)ncnc6[nH]5)cc4)CC3)CC2)cc1N1CCC(=O)NC1=O` [Compound 9, N-(3-(6-(4-((9-(3-(2,4-Dioxotetrahydropyrimidin-1(2H)-yl)-4-methoxybenzoyl)-3,9-diazaspiro[5.5]undecan-3-yl)methyl)phenyl)-7H-pyrrolo[2.3-d]pyrimidin-4-yl)-5-fluoro-2-methylphenyl)-2-fluoro-4-(2-hydroxypropan-2-yl)benzamide]: the GI50 worked out at 0.52 nM.

For the compound `Cc1c(NC(=O)c2ccc(C(C)(C)O)cc2F)cc(F)cc1-c1ncnc2[nH]c(-c3ccc(CN4CCC5(CC4)CCN(C(=O)c4ccc(F)c(N6CCC(=O)NC6=O)c4)CC5)cc3)cc12` [Compound 14, N-(3-(6-(4-((9-(3-(2,4-Dioxotetrahydropyrimidin-1(2H)-yl)-4-fluorobenzoyl)-3,9-diazaspiro[5.5]undecan-3-yl)methyl)phenyl)-7H-pyrrolo[2.3-d]pyrimidin-4-yl)-5-fluoro-2-methylphenyl)-2-fluoro-4-(2-hydroxypropan-2-yl)benzamide], the GI50 is 1.02 nM.

Turning to `Cc1c(NC(=O)c2ccc(C(C)(C)O)cc2F)cc(F)cc1-c1ncnc2[nH]c(-c3ccc(CCN4CCC5(CC4)CCN(C(=O)c4cccc(N6CCC(=O)NC6=O)c4)CC5)cc3)cc12` [Compound 12, N-(3-(6-(4-(2-(9-(3-(2,4-Dioxotetrahydropyrimidin-1(2H)-yl)benzoyl)-3,9-diazaspiro[5,5]undecan-3-yl)ethyl)phenyl)-7H-pyrrolo[2,3-d]pyrimidin-4-yl)-5-fluoro-2-methylphenyl)-2-fluoro-4-(2-hydroxypropan-2-yl)benzamide], the 50% growth inhibitory concentration (GI50) was found to be 0.93 nM.

With `COc1ccc(C(=O)NCCN2CCC3(CC2)CCN(Cc2ccc(-c4cc5c(-c6cc(F)cc(NC(=O)c7ccc(C(C)(C)O)cc7F)c6C)ncnc5[nH]4)cc2)CC3)cc1N1CCC(=O)NC1=O` [Compound 44, N-(3-(6-(4-((9-(2-(3-(2,4-dioxotetrahydropyrimidin-1(2H)-yl)-4-methoxybenzamido)ethyl)-3,9-diazaspiro[5.5]undecan-3-yl)methyl)phenyl)-7H-pyrrolo[2,3-d]pyrimidin-4-yl)-5-fluoro-2-methylphenyl)-2-fluoro-4-(2-hydroxypropan-2-yl)benzamide], the 50% growth inhibitory concentration (GI50) was 3.74 nM.

As to `COc1ccc(C(=O)N2CCC3(CCN(CCc4ccc(-c5cc6c(-c7cc(F)cc(NC(=O)c8ccc(C(C)(C)O)cc8F)c7C)ncnc6[nH]5)cc4)CC3)CC2)cc1N1CCC(=O)NC1=O` [Compound 31, N-(3-(6-(4-(2-(9-(3-(2,4-Dioxotetrahydropyrimidin-1(2H)-yl)-4-methoxybenzoyl)-3,9-diazaspiro[5.5]undecan-3-yl)ethyl)phenyl)-7H-pyrrolo[2,3-d]pyrimidin-4-yl)-5-fluoro-2-methylphenyl)-2-fluoro-4-(2-hydroxypropan-2-yl)benzamide], the GI50 was found to be 0.46 nM.

As to `CCOc1ccc(C(=O)N2CCC3(CCN(Cc4ccc(-c5cc6c(-c7cc(F)cc(NC(=O)c8ccc(C(C)(C)O)cc8F)c7C)ncnc6[nH]5)cc4)CC3)CC2)cc1N1CCC(=O)NC1=O` [Compound 4, N-(3-(6-(4-((9-(3-(2,4-Dioxotetrahydropyrimidin-1(2H)-yl)-4-ethoxybenzoyl)-3,9-diazaspiro[5.5]undecan-3-yl)methyl)phenyl)-7H-pyrrolo[2,3-d]pyrimidin-4-yl)-5-fluoro-2-methylphenyl)-2-fluoro-4-(2-hydroxypropan-2-yl)benzamide], the GI50 was determined as 1.84 nM.

Turning to `Cc1c(NC(=O)c2ccc(C(C)(C)O)cc2F)cc(F)cc1-c1ncnc2[nH]c(-c3ccc(CCN4CCC5(CC4)CCN(C(=O)c4ccc(F)c(N6CCC(=O)NC6=O)c4)CC5)cc3)cc12` [Compound 47, N-(3-(6-(4-(2-(9-(3-(2,4-dioxotetrahydropyrimidin-1(2H)-yl)-4-fluorobenzoyl)-3,9-diazaspiro[5.5]undecan-3-yl)ethyl)phenyl)-7H-pyrrolo[2,3-d]pyrimidin-4-yl)-5-fluoro-2-methylphenyl)-2-fluoro-4-(2-hydroxypropan-2-yl)benzamide], the GI50 was found to be 0.53 nM.

For the compound `COc1ccc(C(=O)N2CCC3(CC2)CCN(C(C)(C)Cc2ccc(-c4cc5c(-c6cc(F)cc(NC(=O)c7ccc(C(C)(C)O)cc7F)c6C)ncnc5[nH]4)cc2)CC3)cc1N1CCC(=O)NC1=O` [Compound 20, N-(3-(6-(4-(2-(9-(3-(2,4-Dioxotetrahydropyrimidin-1(2H)-yl)-4-methoxybenzoyl)-3,9-diazaspiro[5.5]undecan-3-yl)-2-methylpropyl)phenyl)-7H-pyrrolo[2,3-d]pyrimidin-4-yl)-5-fluoro-2-methylphenyl)-2-fluoro-4-(2-hydroxypropan-2-yl)benzamide], the GI50 stood at 0.53 nM.

As to `COc1ccc(C(=O)N2CCC(OC3CCN(CCc4ccc(-c5cc6c(-c7cc(F)cc(NC(=O)c8ccc(C(C)(C)O)cc8F)c7C)ncnc6[nH]5)cc4)CC3)CC2)cc1N1CCC(=O)NC1=O` [Compound 34, N-(3-(6-(4-(2-(4-((1-(3-(2,4-Dioxotetrahydropyrimidin-1(2H)-yl)-4-methoxybenzoyl)piperidin-4-yl)oxyl)piperidin-1-yl)ethyl)phenyl)-7H-pyrrolo[2,3-d]pyrimidin-4-yl)-5-fluoro-2-methylphenyl)-2-fluoro-4-(2-hydroxypropan-2-yl)benzamide], the GI50 was determined as 1.7 nM.

For `Cc1cc(F)c(C(=O)NCCCCCNCc2ccc(-c3cc4c(-c5cc(F)cc(NC(=O)c6ccc(C(C)(C)O)cc6F)c5C)ncnc4[nH]3)cc2)cc1N1CCC(=O)NC1=O` [Compound 29, 5-(2,4-Dioxotetrahydropyrimidin-1(2H)-yl)-2-fluoro-N—(S-((4-(4-(5-fluoro-3-(2-fluoro-4-(2-hydroxypropan-2-yl)benzamido)-2-methylphenyl)-7H-pyrrolo[2,3-d]pyrimidin-6-yl)benzyl)amino)pentyl)-4-methylbenzamide], the 50% growth inhibitory concentration (GI50) is 2.25 nM.

As for `Cc1ccc(C(=O)N(C)CCCCCNCc2ccc(-c3cc4c(-c5cc(F)cc(NC(=O)c6ccc(C(C)(C)O)cc6F)c5C)ncnc4[nH]3)cc2)cc1N1CCC(=O)NC1=O` [Compound 30, 3-(2,4-Dioxotetrahydropyrimidin-1(2H)-yl)-N-(5-((4-(4-(5-fluoro-3-(2-fluoro-4-(2-hydroxypropan-2-yl)benzamido)-2-methylphenyl)-7H-pyrrolo[2,3-d]pyrimidin-6-yl)benzyl)amino)pentyl)-N,4-dimethylbenzamide], the GI50 worked out at 5.2 nM.

As to `COc1ccc(C(=O)NCCN2CCOC3(CCN(Cc4ccc(-c5cc6c(-c7cc(F)cc(NC(=O)c8ccc(C(C)(C)O)cc8F)c7C)ncnc6[nH]5)cc4)CC3)C2)cc1N1CCC(=O)NC1=O` [Compound 39, N-(3-(6-(4-((4-(2-(3-(2,4-dioxotetrahydropyrimidin-1(2H)-yl)-4-methoxybenzamido)ethyl)-1-oxa-4,9-diazaspiro[5.5]undecan-9-yl)methyl)phenyl)-7H-pyrrolo[2,3-d]pyrimidin-4-yl)-5-fluoro-2-methylphenyl)-2-fluoro-4-(2-hydroxypropan-2-yl)benzamide], the GI50 stood at 4.79 nM.

Regarding `COc1ccc(C(=O)N2CCC(OC3CCN(Cc4ccc(-c5cc6c(-c7cc(F)cc(NC(=O)c8ccc(C(C)(C)O)cc8F)c7C)ncnc6[nH]5)cc4)CC3)CC2)cc1N1CCC(=O)NC1=O` [Compound 8, N-(3-(6-(4-((4-((1-(3-(2,4-dioxotetrahydropyrimidin-1(2H)-yl)-4-methoxybenzoyl)piperidin-4-yl)oxyl)piperidin-1-yl)methyl)phenyl)-7H-pyrrolo[2,3-d]pyrimidin-4-yl)-5-fluoro-2-methylphenyl)-2-fluoro-4-(2-hydroxypropan-2-yl)benzamide], the GI50 came to 0.39 nM.

Take `COc1ccc(C(=O)N2CCC(CN3CCC(Oc4ccc(-c5cc6c(-c7cc(F)cc(NC(=O)c8ccc(C(C)(C)O)cc8F)c7C)ncnc6[nH]5)cc4)CC3)CC2)cc1N1CCC(=O)NC1=O` [Compound 19, N-(3-(6-(4-((1-((1-(3-(2,4-Dioxotetrahydropyrimidin-1(2H)-yl)-4-methoxybenzoyl)piperidin-4-yl)methyl)piperidin-4-yl)oxyl)phenyl)-7H-pyrrolo[2,3-d]pyrimidin-4-yl)-5-fluoro-2-methylphenyl)-2-fluoro-4-(2-hydroxypropan-2-yl)benzamide]: the GI50 amounted to 0.45 nM.

As for `COc1ccc(C(=O)N2CCN(C(=O)N3CCN(Cc4ccc(-c5cc6c(-c7cc(F)cc(NC(=O)c8ccc(C(C)(C)O)cc8F)c7C)ncnc6[nH]5)cc4)CC3)CC2)cc1N1CCC(=O)NC1=O` [Compound 22, N-(3-(6-(4-((4-(4-(3-(2,4-Dioxotetrahydropyrimidin-1(2H)-yl)-4-methoxybenzoyl)piperazine-1-carbonyl)piperazin-1-yl)methyl)phenyl)-7H-pyrrolo[2,3-d]pyrimidin-4-yl)-5-fluoro-2-methylphenyl)-2-fluoro-4-(2-hydroxypropan-2-yl)benzamide], the 50% growth inhibitory concentration (GI50) was found to be 4.82 nM.

On to `Cc1c(NC(=O)c2ccc(C(C)(C)O)cc2F)cc(F)cc1-c1ncnc2[nH]c(-c3ccc(COC4CCN(CCC5CCN(C(=O)c6ccc(F)c(N7CCC(=O)NC7=O)c6)CC5)CC4)cc3)cc12` [Compound 6, N-(3-(6-(4-(((1-(2(1-(3-(2,4-dioxotetrahydropyrimidin-1(2H)-yl)-4-fluorobenzoyl)piperidin-4-yl)ethyl)piperidin-4-yl)oxyl)methyl)phenyl)-7H-pyrrolo[2,3-d]pyrimidin-4-yl)-5-fluoro-2-methylphenyl)-2-fluoro-4-(2-hydroxypropan-2-yl)benzamide], for which the GI50 stood at 0.53 nM.

For the compound `Cc1ccc(C(=O)N2CCC3(CCN(Cc4ccc(-c5cc6c(-c7cc(F)cc(NC(=O)c8ccc(C(C)(C)O)cc8F)c7C)ncnc6[nH]5)cc4)CC3)CC2)cc1N1CCC(=O)NC1=O` [Compound 27, N-(3-(6-(4-((9-(3-(2,4-Dioxotetrahydropyrimidin-1(2H)-yl)-4-methylbenzoyl)-3,9-diazaspiro[5.5]undecan-3-yl)methyl)phenyl)-7H-pyrrolo[2,3-d]pyrimidin-4-yl)-5-fluoro-2-methylphenyl)-2-fluoro-4-(2-hydroxypropan-2-yl)benzamide], the GI50 was found to be 0.4 nM.

As usually defined, the GI50 is the concentration giving 50% growth inhibition.
